Assays:
HDL = experiment: CuSO4-induced HDL oxidation; details: for CuSO4-Induced HDL Oxidation, MDA / CuSO4-Induced HDL Oxidation, Peroxides: 10 μM drug, 10 μM CuSO4, 4 hours at 37° C.; for CuSO4-Induced HDL Oxidation, MDA: Control 9.1 ± 0.1; for CuSO4-Induced HDL Oxidation, Peroxides: Control 122 ± 14; for inhibition of HDL oxidation in the presence of CuSO4: 10 μM CuSO4
[1] = tested on: HDL-associated paraoxonase; experiment: HDL-associated paraoxonase activity after CuSO4-induced HDL oxidation; assay type: biochemical, human; details: for Paraoxonase Specific Activity: after CuSO4-induced HDL oxidation, before incubation 50±3; for protection of HDL-associated paraoxonase: HDL oxidized with CuSO4, versus HDL oxidized without drug
Description: . One unit of paraoxonase activity produces 1 nmol of p-nitrophenol per minute.

VLDL [2] = experiment: Copper ion (CuSO4)-induced VLDL oxidation; details: for inhibition of VLDL oxidation (TBARS), copper ion oxidative system: 10 μM compound, 4 hours at 37° C.; for VLDL-associated peroxide content, CuSO4 system: control VLDL 1818±333
[3] = Free radical scavenging capacity (DPPH assay); details: 20 μM; after 300 seconds of incubation
Description: Free radical scavenging capacity—The free radical scavenging capacities of the drugs were analyzed by the 1,1-diphenyl-2-picryl-hydrazyl (DPPH) assay. Each drug (20 μM) was mixed with 3 mL of 0.1 nmol DPPH/1 (in ethanol). The time course of the change in the optical density at 517 nm was then kinetically monitored.

LDL [4] = experiment: LDL oxidation in all oxidative systems studied (CuSO4, AAPH, J-774A.1 macrophages), summary statements; assay type: biochemical, human; details: for inhibition of lipid peroxidation induced by copper ions, AAPH or J-774A.1 macrophages: pharmacological concentrations, summary over systems; for inhibition of LDL oxidation in all oxidative systems studied (in words): CuSO4, AAPH and J-774A.1 macrophage systems
VLDL [5] = experiment: AAPH-induced VLDL oxidation; details: for inhibition of VLDL oxidation (TBARS), AAPH oxidative system: 10 μM compound, 4 hours at 37° C.; for VLDL-associated peroxide content, AAPH system: control VLDL 2169±329
LDL [6] = experiment: Copper ion (CuSO4)-induced LDL oxidation; assay type: biochemical, human; details: for inhibition of LDL oxidation measured by the TBARS assay, CuSO4 system: 10 μM compound, 10 μM CuSO4, 4 hours at 37° C., LDL 100 μg of protein/mL; for LDL-associated peroxides content, CuSO4 system: control LDL 710±51
VLDL [7] = experiment: Lipoprotein electrophoresis of VLDL after copper ion-induced oxidation; assay type: biochemical, human; details: 10 μM CuSO4
Description: Lipoprotein electrophoresis—Lipoproteins (100 μg protein/mL) were incubated without or with the drugs followed by oxidation in the presence of 10 μM CuSO4. Then, electrophoresis of the lipoproteins was performed on 1% agarose using a Hydragel-Lipo kit (Sebia, France).

[8] = tested on: J-774 A.1 murine macrophages-like cell line; details: 10 μM compound; J-774 A.1 cells, 2 μM CuSO4, 20 hours
Description: The macrophages were grown in Dulbecco's Modified Eagles Medium (DMEM) supplemented with 5% heat inactivated fetal calf serum (FCS). For the lipoprotein oxidation studies, cells (1×10^6/35 mm dish) were incubated with LDL (100 μg of protein/mL) in RPMI medium (without phenol red) in the presence of 2 μM CuSO4 for 20 hours at 37° C. in the incubator. Control LDL was also incubated in a cell-free system under the same conditions. At the end of the incubation period, the extent of LDL oxidation was measured in the medium (after centrifugation at 1000×g for 10 minutes) by the TBARS assay. Cell-mediated oxidation of LDL was calculated by subtracting the values obtained in the cell-free system from those obtained with the cells.

LDL [9] = experiment: AAPH (free radical generator)-induced LDL oxidation; assay type: biochemical, human; details: for inhibition of LDL oxidation measured by the TBARS assay, AAPH system: 10 μM compound, 5 mM AAPH, 4 hours at 37° C.; for LDL-associated peroxides content, AAPH system: control LDL 990±89
[10] = Description: For the lipid peroxidation experiments, 500 μL of membrane vesicles were enriched with dilinoleoyl phosphatidylcholine (DLPC) at a concentration of 1.0 mg DLPC/mL. […] The extent of lipid peroxidation in each sample was determined by a spectrophotometric assay for lipid peroxides in serum lipoproteins using a color reagent known as CHOD-iodide (Merck, Darmstadt, FRG, Merck Cat. No. 14106). The color reagent has the following composition:
The concentration of triiodide formed was measured spectrophotometrically according to the formula (L=lipoprotein) [formula]
To each of the withdrawn aliquots of membrane vesicles was added 1.0 mL of the CHOD color reagent, and the sample was incubated in the absence of light for 4 hours. […] Lipid peroxide formation was measured in triplicate and values were expressed as mean±SD. The significance of differences between results from different experimental conditions was tested using the two-tailed student t-test.

CC(C)c1c(C(=O)Nc2ccccc2)c(-c2ccccc2)c(-c2ccc(F)cc2)n1CC[C@@H](O)C[C@@H](O)CC(=O)O [atorvastatin, reference compound]
CuSO4-Induced HDL Oxidation, MDA (HDL; Table 1): 9.6 ± 0.5 nmoL/mg HDL Protein | CuSO4-Induced HDL Oxidation, Peroxides (HDL; Table 1): 122 ± 15 nmoL/mg HDL Protein | Paraoxonase Specific Activity ([1]; Table 1, Control 26 ± 2): 29 ± 4 nmoL/mg HDL Protein/min | inhibition of VLDL oxidation (TBARS), copper ion oxidative system (VLDL [2]): no effect | reduction in the absorbance at 517 nm (DPPH assay) [3]: not by atorvastatin | inhibition of lipid peroxidation induced by copper ions, AAPH or J-774A.1 macrophages (LDL [4]): not inhibited | inhibition of VLDL oxidation (TBARS), AAPH oxidative system (VLDL [5]): no effect

Cc1ccc(C)c(OCCCC(C)(C)C(=O)O)c1 [gemfibrozil, reference compound]
inhibition of HDL oxidation in the presence of CuSO4 (HDL): no effect | CuSO4-Induced HDL Oxidation, MDA (HDL; Table 2): 8.2 ± 0.4 nmoL/mg HDL Protein | CuSO4-Induced HDL Oxidation, Peroxides (HDL; Table 2): 134 ± 13 nmoL/mg HDL Protein | protection of HDL-associated paraoxonase [1]: no effect | Paraoxonase Specific Activity ([1]; Table 2, Control 26 ± 3): 27 ± 5 nmoL/mg HDL Protein/min | lag time for the initiation of LDL oxidation (conjugated dienes formation) (LDL [6]; gemfibrozil experiment, LDL alone 60±9): 60 ± 9 min | reduction in the absorbance at 517 nm (DPPH assay) [3]: not gemfibrozil itself | inhibition of lipid peroxidation induced by copper ions, AAPH or J-774A.1 macrophages (LDL [4]): not inhibited

CC(C)c1c(C(=O)Nc2ccccc2O)c(-c2ccccc2)c(-c2ccc(F)cc2)n1CC[C@@H](O)C[C@@H](O)CC(=O)O [ortho-hydroxy metabolite, ortho-hydroxy atorvastatin]
inhibition of HDL oxidation in the presence of CuSO4 (HDL): completely inhibited | CuSO4-Induced HDL Oxidation, MDA (HDL; Table 1): 0.2 ± 0.1 nmoL/mg HDL Protein | CuSO4-Induced HDL Oxidation, Peroxides (HDL; Table 1): 9 ± 1 nmoL/mg HDL Protein | protection of HDL-associated paraoxonase [1]: 54% | Paraoxonase Specific Activity ([1]; Table 1, Control 26 ± 2): 40 ± 4 nmoL/mg HDL Protein/min | lipoprotein electrophoretic migration of oxidized VLDL (VLDL [7]): reduce lipoprotein electrophoretic migration | inhibition of VLDL oxidation (TBARS), copper ion oxidative system (VLDL [2]): 79% | VLDL-associated peroxide content, CuSO4 system (VLDL [2]): 242±22 nmol/mg VLDL protein | inhibition of LDL oxidation measured by the TBARS assay, CuSO4 system (LDL [6]): 73% | LDL-associated peroxides content, CuSO4 system (LDL [6]): 192±15 nmol/mg LDL protein | inhibitory effect on copper ion-induced LDL oxidation (TBARS) (LDL [6]; metabolite I of gemfibrozil 3 μM, ortho-hydroxy metabolite of atorvastatin 4 μM, alone or in combination, 10 μM CuSO4, 4 hours): 43% | reduction in the absorbance at 517 nm (DPPH assay) [3]: 37% | inhibition of LDL oxidation measured by the TBARS assay, macrophage system [8]: 50% | inhibition of LDL oxidation in all oxidative systems studied (in words) (LDL [4]): inhibited | inhibition of VLDL oxidation (TBARS), AAPH oxidative system (VLDL [5]): 43% | VLDL-associated peroxide content, AAPH system (VLDL [5]): 1228±210 nmol VLDL protein | inhibition of LDL oxidation measured by the TBARS assay, AAPH system (LDL [9]): 44% | LDL-associated peroxides content, AAPH system (LDL [9]): 554±32 nmol/mg LDL protein

CC(C)c1c(C(=O)Nc2ccc(O)cc2)c(-c2ccccc2)c(-c2ccc(F)cc2)n1CC[C@@H](O)C[C@@H](O)CC(=O)O [para-hydroxy metabolite, para-hydroxy atorvastatin]
inhibition of HDL oxidation in the presence of CuSO4 (HDL): about 50% | CuSO4-Induced HDL Oxidation, MDA (HDL; Table 1): 4.5 ± 0.3 nmoL/mg HDL Protein | CuSO4-Induced HDL Oxidation, Peroxides (HDL; Table 1): 65 ± 9 nmoL/mg HDL Protein | protection of HDL-associated paraoxonase [1]: 27% | Paraoxonase Specific Activity ([1]; Table 1, Control 26 ± 2): 33 ± 3 nmoL/mg HDL Protein/min | inhibition of VLDL oxidation (TBARS), copper ion oxidative system (VLDL [2]): 37% | VLDL-associated peroxide content, CuSO4 system (VLDL [2]): 1088±310 nmol/mg VLDL protein | inhibition of LDL oxidation measured by the TBARS assay, CuSO4 system (LDL [6]): 60% | LDL-associated peroxides content, CuSO4 system (LDL [6]): 284±13 nmol/mg LDL protein | reduction in the absorbance at 517 nm (DPPH assay) [3]: 28% | inhibition of LDL oxidation measured by the TBARS assay, macrophage system [8]: 46% | inhibition of lipid peroxidation in membrane vesicles ([10]; 10.0 μM compound): 80% | comparative antioxidant potency versus Vitamin E and probucol ([10]; FIG. 12): significantly more active | antioxidant activity under atherosclerotic-like conditions of elevated membrane cholesterol ([10]; FIG. 13): increased | levels of lipid peroxidation inhibited ([10]; at concentrations as low as 10.0 μM): > 10^2 μM | inhibition of LDL oxidation in all oxidative systems studied (in words) (LDL [4]): inhibited | inhibition of VLDL oxidation (TBARS), AAPH oxidative system (VLDL [5]): 16% | VLDL-associated peroxide content, AAPH system (VLDL [5]): 1819±228 nmol VLDL protein | inhibition of LDL oxidation measured by the TBARS assay, AAPH system (LDL [9]): 34% | LDL-associated peroxides content, AAPH system (LDL [9]): 624±38 nmol/mg LDL protein

vitamin E
reduction in the absorbance at 517 nm (DPPH assay) [3]: 95%
